Read-outs that look alike come from different tables or passages of the source.
What was measured:
[1] = tested on: CbcXWV from P. aeruginosa PAO1; type: cell-based, Pseudomonas aeruginosa; conditions: MKH13, pCbcPAO1; radiolabelled substrate 1 mM; mean (SE), n = 10
CbcXWV from DC3000 = type: cell-based, Pseudomonas syringae pv. tomato; conditions: Acella, pET-cbcDC3000; 1 mM IPTG; substrate 1 mM; mean (SE), n = 10
CbcXWV from B728a = type: cell-based, Pseudomonas syringae pv. syringae; conditions: Acella, pET-cbcB728a; 1 mM IPTG; substrate 1 mM; single colony
[2] = tested on: cbcXWV from B728a in QAC transporter-deficient BT strain; type: cell-based, Pseudomonas syringae pv. syringae; conditions: BT(pCbcB728a), unlabelled competitor 0.5 mM, 10 min
[3] = tested on: cbcXWV from DC3000 in QAC transporter-deficient BT strain; type: cell-based, Pseudomonas syringae pv. tomato; conditions: BT(pCbcDC3000), unlabelled competitor 0.5 mM, 10 min
[4] = tested on: cbcXWV from PAO1 in QAC transporter-deficient BT strain; type: cell-based, Pseudomonas aeruginosa; conditions: BT(pCbcPAO1), unlabelled competitor 0.5 mM, 10 min
[5] = tested on: P. syringae BT-derived mutants; type: cell-based, Pseudomonas syringae pv. syringae; conditions: pN
[6] = tested on: complete Cbc transporter CbcXWV (PAO1); type: cell-based, Pseudomonas aeruginosa; conditions: for Total uptake: pNcbcXWV; for choline uptake by CbcXWV: BT strain derivatives
[7] = tested on: Cbc core transporter CbcWV (PAO1) with chromosomally encoded SBPs; type: cell-based, Pseudomonas aeruginosa; conditions: pNcbcWV
CbcWV with CaiXPAO1 = type: cell-based, Pseudomonas aeruginosa; conditions: MKH13; pNcbcWV, pT-PA5388; SBP CaiXPAO1; substrate 10 μM; single replication
CbcWV with CaiXB728a = type: cell-based, Pseudomonas syringae pv. syringae; conditions: MKH13; pNcbcWV, pT-B2916; SBP CaiXB728a; substrate 10 μM; single replication
CbcWV with BetXPAO1 = type: cell-based, Pseudomonas aeruginosa; conditions: MKH13; pNcbcWV, pT-PA3236; SBP BetXPAO1; substrate 10 μM; single replication
CbcWV with BetXB728a = type: cell-based, Pseudomonas syringae pv. syringae; conditions: MKH13; pNcbcWV, pT-B3758; SBP BetXB728a; substrate 10 μM; single replication
CbcWV with BetXDC3000 = type: cell-based, Pseudomonas syringae pv. tomato; conditions: MKH13; pNcbcWV, pT-D3758; SBP BetXDC3000; substrate 10 μM; single replication
CaiX with CbcWV = type: cell-based, Pseudomonas aeruginosa; conditions: MKH13; pNcbcWV, pT-PA5388; SBP CaiX; [^14C]carnitine 10 μM; competitor 1 mM
CbcX with CbcWV = CbcX with CbcWV (Pseudomonas aeruginosa, UniProt Q9HTI6); test: Competitive uptake, MKH13 expressing cbcXWV; type: cell-based; conditions: MKH13, pNcbcXWV, SBP CbcX, competitor 1 mM
ChoXWV = biological target: T1, ChoXWV (Sinorhizobium meliloti, UniProt Q92N37); test: Competitive uptake, MKH13 expressing choXWV; type: cell-based; conditions: pNchoXWV, SBP ChoX, [^14C]choline 10 μM, competitor 1 mM
T1 sequence (Q92N37 28-318): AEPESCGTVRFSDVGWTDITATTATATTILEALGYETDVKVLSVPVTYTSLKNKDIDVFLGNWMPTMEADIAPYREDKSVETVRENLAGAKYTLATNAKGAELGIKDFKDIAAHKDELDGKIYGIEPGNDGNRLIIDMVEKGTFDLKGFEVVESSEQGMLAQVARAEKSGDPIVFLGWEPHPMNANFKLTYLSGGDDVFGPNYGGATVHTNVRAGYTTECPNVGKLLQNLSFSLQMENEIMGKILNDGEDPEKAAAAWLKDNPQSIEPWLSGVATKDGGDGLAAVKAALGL
T1 sequence (Q92N36 1-281 partner): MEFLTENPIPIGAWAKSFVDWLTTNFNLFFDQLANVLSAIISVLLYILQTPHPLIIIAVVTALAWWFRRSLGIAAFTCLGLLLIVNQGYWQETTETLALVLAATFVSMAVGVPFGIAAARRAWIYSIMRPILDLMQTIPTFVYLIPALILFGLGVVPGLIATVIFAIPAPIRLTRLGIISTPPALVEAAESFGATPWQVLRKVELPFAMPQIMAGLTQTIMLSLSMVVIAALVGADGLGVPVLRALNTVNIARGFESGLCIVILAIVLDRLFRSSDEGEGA
T1 sequence (Q92N35 1-349 partner): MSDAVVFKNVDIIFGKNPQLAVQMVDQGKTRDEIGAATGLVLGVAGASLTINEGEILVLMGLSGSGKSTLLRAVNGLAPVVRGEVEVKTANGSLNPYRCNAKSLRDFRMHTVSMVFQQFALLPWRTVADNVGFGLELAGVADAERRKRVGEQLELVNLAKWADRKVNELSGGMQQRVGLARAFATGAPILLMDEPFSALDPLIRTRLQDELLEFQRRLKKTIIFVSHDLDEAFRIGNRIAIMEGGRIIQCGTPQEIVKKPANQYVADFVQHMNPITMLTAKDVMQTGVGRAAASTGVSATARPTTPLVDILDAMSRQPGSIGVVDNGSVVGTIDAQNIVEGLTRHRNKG

[8] = host BT2916Ko, substrate 10 μM, single replication
[9] = host BT0028Ko, substrate 10 μM, mean (SE), n = 2
[10] = host BT3758Ko, substrate 10 μM, mean (SE), n = 3
[11] = host BT2916Ko, substrate 1 mM, single replication
[12] = host BT0028Ko, substrate 1 mM, mean (SE), n = 2
[13] = host BT3758Ko, substrate 1 mM, mean (SE), n = 3

C[N+](C)(C)CC(=O)O [Betaine, glycine betaine]
Total uptake [1]: 5.8 (1.1) nmol (mg protein)^−1
Total uptake (CbcXWV from DC3000): 17.0 (1.8) nmol (mg protein)^−1
Total uptake (CbcXWV from B728a): 16.2 nmol (mg protein)^−1
% inhibition of uptake of [^14C]substrate ([2]; [^14C]betaine 5 μM): 93%
% inhibition of uptake of [^14C]substrate ([2]; [^14C]carnitine 5 μM): 83%
% inhibition of uptake of [^14C]substrate ([2]; [^14C]choline 5 μM): 19%
% inhibition of uptake of [^14C]substrate ([3]; [^14C]betaine 5 μM): 89%
% inhibition of uptake of [^14C]substrate ([3]; [^14C]carnitine 5 μM): 88%
% inhibition of uptake of [^14C]substrate ([3]; [^14C]choline 5 μM): 12%
% inhibition of uptake of [^14C]substrate ([4]; [^14C]betaine 5 μM): 83%
% inhibition of uptake of [^14C]substrate ([4]; [^14C]carnitine 5 μM): 84%
% inhibition of uptake of [^14C]substrate ([4]; [^14C]choline 5 μM): 9%
Total uptake ([5]; host BT0028Ko, substrate 10 μM): 0.0 nmol (mg protein)^−1
Total uptake [5, 8]: 0.0 nmol (mg protein)^−1
Total uptake ([5]; host BT3758Ko, substrate 10 μM): 0.0 nmol (mg protein)^−1
Total uptake [6, 9]: 16.1 (0.41) nmol (mg protein)^−1
Total uptake [6, 8]: 16.0 nmol (mg protein)^−1
Total uptake [6, 10]: 14.3 (0.24) nmol (mg protein)^−1
Total uptake [7, 9]: 17.2 (0.2) nmol (mg protein)^−1
Total uptake [7, 8]: 17.2 nmol (mg protein)^−1
Total uptake [7, 10]: 0.1 (0.01) nmol (mg protein)^−1
Total uptake (CbcWV with CaiXPAO1): 0 nmol (mg protein)^−1
Total uptake (CbcWV with CaiXB728a): 0 nmol (mg protein)^−1
Total uptake (CbcWV with BetXPAO1): 21.6 nmol (mg protein)^−1
Total uptake (CbcWV with BetXB728a): 11.9 nmol (mg protein)^−1
Total uptake (CbcWV with BetXDC3000): 6.1 nmol (mg protein)^−1
% inhibition of uptake of substrate by unlabelled competitor (CaiX with CbcWV): 5%
% inhibition of uptake of substrate by unlabelled competitor (CbcX with CbcWV; [^14C]betaine 10 μM): 87%
% inhibition of uptake of substrate by unlabelled competitor (CbcX with CbcWV; [^14C]choline 10 μM): not inhibited
% inhibition of uptake of substrate by unlabelled competitor (CbcX with CbcWV; [^14C]choline 10 μM, listed as Bet): 2%
% inhibition of uptake of substrate by unlabelled competitor (ChoXWV): 3%

C[N+](C)(C)CCO [Choline, choline]
Total uptake [1]: 12.1 (1.1) nmol (mg protein)^−1
Total uptake (CbcXWV from DC3000): 15.0 (2.4) nmol (mg protein)^−1
Total uptake (CbcXWV from B728a): 19.2 nmol (mg protein)^−1
% inhibition of uptake of [^14C]substrate ([2]; [^14C]betaine 5 μM): 3%
% inhibition of uptake of [^14C]substrate ([2]; [^14C]carnitine 5 μM): 75%
% inhibition of uptake of [^14C]substrate ([2]; [^14C]choline 5 μM): 93%
% inhibition of uptake of [^14C]substrate ([3]; [^14C]betaine 5 μM): −6%
% inhibition of uptake of [^14C]substrate ([3]; [^14C]carnitine 5 μM): 81%
% inhibition of uptake of [^14C]substrate ([3]; [^14C]choline 5 μM): 89%
% inhibition of uptake of [^14C]substrate ([4]; [^14C]betaine 5 μM): −6%
% inhibition of uptake of [^14C]substrate ([4]; [^14C]carnitine 5 μM): 77%
% inhibition of uptake of [^14C]substrate ([4]; [^14C]choline 5 μM): 84%
Total uptake ([5]; host BT0028Ko, substrate 10 μM): 0.0 nmol (mg protein)^−1
Total uptake ([5]; host BT0028Ko, substrate 1 mM): 0 nmol (mg protein)^−1
Total uptake [5, 8]: 0.0 nmol (mg protein)^−1
Total uptake [5, 11]: 0 nmol (mg protein)^−1
Total uptake ([5]; host BT3758Ko, substrate 10 μM): 0.0 nmol (mg protein)^−1
Total uptake ([5]; host BT3758Ko, substrate 1 mM): 0 nmol (mg protein)^−1
choline uptake by CbcXWV ([6]; choline 10 μM (summary of Table 4)): 16 to 18 nmol (mg protein)^−1
choline uptake by CbcXWV ([6]; choline 1 mM (summary of Table 4)): 562–648 nmol (mg protein)^−1
share of choline uptake mediated by CbcX ([6]; at low (10 μM) and high (1 mM) [^14C]choline concentrations, BT derivatives): approximately 99%
Total uptake [6, 9]: 18.2 (0.36) nmol (mg protein)^−1
Total uptake [6, 12]: 562 (6.8) nmol (mg protein)^−1
Total uptake [6, 8]: 16.2 nmol (mg protein)^−1
Total uptake [6, 11]: 644 nmol (mg protein)^−1
Total uptake [6, 10]: 16.4 (0.18) nmol (mg protein)^−1
Total uptake [6, 13]: 648 (27.5) nmol (mg protein)^−1
Total uptake [7, 9]: 0.11 (0.05) nmol (mg protein)^−1
Total uptake [7, 12]: 8.9 (1.4) nmol (mg protein)^−1
Total uptake [7, 8]: 0.15 nmol (mg protein)^−1
Total uptake [7, 11]: 8.6 nmol (mg protein)^−1
Total uptake [7, 10]: 0.15 (0.05) nmol (mg protein)^−1
Total uptake [7, 13]: 7.1 (0.6) nmol (mg protein)^−1
Total uptake (CbcWV with CaiXPAO1): 0 nmol (mg protein)^−1
Total uptake (CbcWV with CaiXB728a): 0 nmol (mg protein)^−1
Total uptake (CbcWV with BetXPAO1): 0 nmol (mg protein)^−1
Total uptake (CbcWV with BetXB728a): 0 nmol (mg protein)^−1
Total uptake (CbcWV with BetXDC3000): 0 nmol (mg protein)^−1
% inhibition of uptake of substrate by unlabelled competitor (CaiX with CbcWV): 5%
% inhibition of uptake of substrate by unlabelled competitor (CbcX with CbcWV; [^14C]betaine 10 μM): 99%
% inhibition of uptake of substrate by unlabelled competitor (CbcX with CbcWV; [^14C]choline 10 μM): 92%
% inhibition of uptake of substrate by unlabelled competitor (ChoXWV): 98%
